≈ marks a conversion by molar mass, not a printed value.
Legend:
S. aureus RN4220 = assay: MIC, agar plate dilution method, S. aureus RN4220; assay type: cell-based, Staphylococcus aureus; conditions: for MIC: Staphylococcus aureus, RN4220, S. aureus RN4220, Sensitive bacterium, read-out: minimal inhibitory concentration (MIC); for minimal inhibitory concentration (MIC): S. aureus RN4220, Sensitive bacterium
Protocol: (§1) As for the representative compounds of a new aminoglycoside antibiotic of the present invention described in Examples, the minimal inhibitory concentration (MIC, μg/mL) was measured for various assay strains of bacteria using an agar plate dilution method in accordance with the method described in the Japan Society of Chemotherapy.

S. aureus RN4220/pMS520 = assay: MIC, agar plate dilution method, S. aureus RN4220/pMS520; assay type: cell-based, Staphylococcus aureus; conditions: for MIC: Staphylococcus aureus, MRSA, read-out: minimal inhibitory concentration (MIC), S. aureus RN4220/pMS520, MRSA; for minimal inhibitory concentration (MIC): S. aureus RN4220/pMS520, MRSA
Protocol: as §1

S. aureus MF490 = assay: MIC, agar plate dilution method, S. aureus MF490; assay type: cell-based, Staphylococcus aureus; conditions: for MIC: Staphylococcus aureus, MRSA, read-out: minimal inhibitory concentration (MIC); for minimal inhibitory concentration (MIC): S. aureus MF490, MRSA
Protocol: as §1

E. faecium ATCC19434 = assay: MIC, agar plate dilution method, E. faecium ATCC19434; assay type: cell-based, Enterococcus faecium; conditions: for MIC: Enterococcus faecium, ATCC19434, E. faecium ATCC19434, read-out: minimal inhibitory concentration (MIC); for minimal inhibitory concentration (MIC): E. faecium ATCC19434
Protocol: as §1

E. coli JM109/pMW218 = assay: MIC, agar plate dilution method, E. coli JM109/pMW218; assay type: cell-based, Escherichia coli; conditions: for MIC: Escherichia coli, JM109/PMW218, E. coli JM109/pMW218, Sensitive bacterium, read-out: minimal inhibitory concentration (MIC); for minimal inhibitory concentration (MIC): E. coli JM109/pMW218, Sensitive bacterium
Protocol: as §1

[1] = system: K. pneumoniae ATCC BAA-1705; assay: MIC, agar plate dilution method, K. pneumoniae ATCC BAA-1705; assay type: cell-based, Klebsiella pneumoniae; conditions: for MIC: Klebsiella pneumoniae, ATCCBAA1705, K. pneumoniae ATCC BAA-1705, KPC-producing strain, read-out: minimal inhibitory concentration (MIC); for minimal inhibitory concentration (MIC): K. pneumoniae ATCC BAA-1705, KPC-producing strain
Protocol: as §1

[2] = system: K. pneumoniae ATCC BAA-2146; assay: MIC, agar plate dilution method, K. pneumoniae ATCC BAA-2146; assay type: cell-based, Klebsiella pneumoniae; conditions: for MIC: Klebsiella pneumoniae, ATCCBAA2146, K. pneumoniae ATCC BAA-2146, NDM-producing strain, read-out: minimal inhibitory concentration (MIC); for minimal inhibitory concentration (MIC): K. pneumoniae ATCC BAA-2146, NDM-producing strain
Protocol: as §1

[3] = system: A. baumannii ATCC BAA-1710; assay: MIC, agar plate dilution method, A. baumannii ATCC BAA-1710; assay type: cell-based, Acinetobacter baumannii; conditions: for MIC: Acinetobacter baumannii, ATCCBAA1710, A. baumannii ATCC BAA-1710, MDRA, read-out: minimal inhibitory concentration (MIC); for minimal inhibitory concentration (MIC): A. baumannii ATCC BAA-1710, MDRA
Protocol: as §1

S. marcescens TH-0447 = assay: MIC, agar plate dilution method, S. marcescens TH-0447; assay type: cell-based, Serratia marcescens; conditions: for MIC: Serratia marcescens, TH0447, S. marcescens TH-0447, AMK-resistant, read-out: minimal inhibitory concentration (MIC); for minimal inhibitory concentration (MIC): S. marcescens TH-0447, AMK-resistant
Protocol: as §1

S. marcescens GN6944 = assay: MIC, agar plate dilution method, S. marcescens GN6944; assay type: cell-based, Serratia marcescens; conditions: S. marcescens GN6944, GM-resistant; for MIC: Serratia marcescens, read-out: minimal inhibitory concentration (MIC)
Protocol: as §1

P. aeruginosa PAO1 = assay: MIC, agar plate dilution method, P. aeruginosa PAO1; assay type: cell-based, Pseudomonas aeruginosa; conditions: for MIC: Pseudomonas aeruginosa, PAO1, P. aeruginosa PAO1, Sensitive bacterium, read-out: minimal inhibitory concentration (MIC); for minimal inhibitory concentration (MIC): P. aeruginosa PAO1, Sensitive bacterium
Protocol: as §1

P. aeruginosa PAO1/GN315 = assay: MIC, agar plate dilution method, P. aeruginosa PAO1/GN315; assay type: cell-based, Pseudomonas aeruginosa; conditions: for MIC: Pseudomonas aeruginosa, read-out: minimal inhibitory concentration (MIC), P. aeruginosa PAO1/GN315, AMK-resistant; for minimal inhibitory concentration (MIC): P. aeruginosa PAO1/GN315, AMK-resistant
Protocol: as §1

P. aeruginosa MSC17707 = assay: MIC, agar plate dilution method, P. aeruginosa MSC17707; assay type: cell-based, Pseudomonas aeruginosa; conditions: for MIC: Pseudomonas aeruginosa, MSC17707, P. aeruginosa MSC17707, AMK-resistant, read-out: minimal inhibitory concentration (MIC); for minimal inhibitory concentration (MIC): P. aeruginosa MSC17707, AMK-resistant
Protocol: as §1

P. aeruginosa MSC01035 = assay: MIC, agar plate dilution method, P. aeruginosa MSC01035; assay type: cell-based, Pseudomonas aeruginosa; conditions: P. aeruginosa MSC01035, ABK-resistant; for MIC: Pseudomonas aeruginosa, read-out: minimal inhibitory concentration (MIC)
Protocol: as §1

Row | Compound | MIC (S. aureus RN4220) [µg/mL] | MIC (S. aureus RN4220/pMS520) [µg/mL] | MIC (S. aureus MF490) [µg/mL] | MIC (E. faecium ATCC19434) [µg/mL] | MIC (E. coli JM109/pMW218) [µg/mL] | MIC [1] [µg/mL] | MIC [2] [µg/mL] | MIC [3] [µg/mL] | MIC (S. marcescens TH-0447) [µg/mL] | MIC (S. marcescens GN6944) [µg/mL] | MIC (P. aeruginosa PAO1) [µg/mL] | MIC (P. aeruginosa PAO1/GN315) [µg/mL] | MIC (P. aeruginosa MSC17707) [µg/mL] | MIC (P. aeruginosa MSC01035) [µg/mL] | further results
1 | CNC1C(O[C@H]2OC(CO)[C@@H](NC3CN(C)C3)[C@H](O)C2O)O[C@H]2CC(N)[C@@H](O[C@@H]3C(N)C[C@@H](N)C(O)[C@H]3O)OC2C1O (stereo partly shown) [Compound A4-i, 4″-N-(1-methylazetidin-3-yl)apramycin] | 4 (≈ 6.57 µM) | 4 (≈ 6.57 µM) | 16 (≈ 26.3 µM) | 32 (≈ 52.6 µM) | 1 (≈ 1.64 µM) | 2 (≈ 3.29 µM) | 2 (≈ 3.29 µM) | 16 (≈ 26.3 µM) | 16 (≈ 26.3 µM) | 8 (≈ 13.1 µM) | 8 (≈ 13.1 µM) | 16 (≈ 26.3 µM) | 16 (≈ 26.3 µM) | 16 (≈ 26.3 µM) | –
2 | CNC1C(O[C@H]2OC(CO)[C@@H](NC(CN)CN)[C@H](O)C2O)O[C@H]2CC(N)[C@@H](O[C@H]3CC(O)[C@H](N)CC3N)OC2C1O (stereo partly shown) [Compound S1-d, 4″-N-(1,3-diaminopropan-2-yl)-5-deoxyapramycin] | 1 (≈ 1.68 µM) | 1 (≈ 1.68 µM) | 4 (≈ 6.71 µM) | 16 (≈ 26.9 µM) | 1 (≈ 1.68 µM) | 1 (≈ 1.68 µM) | 1 (≈ 1.68 µM) | 8 (≈ 13.4 µM) | 8 (≈ 13.4 µM) | 4 (≈ 6.71 µM) | 2 (≈ 3.36 µM) | 4 (≈ 6.71 µM) | 4 (≈ 6.71 µM) | 4 (≈ 6.71 µM) | –
3 | CNC1C(O[C@H]2OC(CO)[C@@H](NC(=O)[C@@H](O)CN)[C@H](O)C2O)O[C@H]2C[C@H](N)[C@@H](O[C@@H]3C(N)C[C@@H](N)C(O)[C@H]3O)OC2C1O (stereo partly drawn) [Compound V1-n, 5-epi-4″-N-(L-isoseryl)apramycin] | 2 (≈ 3.19 µM) | 2 (≈ 3.19 µM) | 8 (≈ 12.8 µM) | 16 (≈ 25.5 µM) | 0.5 (≈ 0.798 µM) | 1 (≈ 1.6 µM) | 1 (≈ 1.6 µM) | 8 (≈ 12.8 µM) | 8 (≈ 12.8 µM) | 8 (≈ 12.8 µM) | 2 (≈ 3.19 µM) | 4 (≈ 6.38 µM) | 2 (≈ 3.19 µM) | 4 (≈ 6.38 µM) | –
4 | CNC1C(OC2OC(CO)C(N)C(O)C2O)OC2CC(N)C(OC3C(N)CC(N)C(O)C3F)OC2C1O (stereo not drawn) [Compound B7, 5-deoxy-5-epi-5-fluoroapramycin] | – | – | – | – | – | – | – | – | – | – | – | – | – | – | minimal inhibitory concentration (MIC) (S. aureus RN4220): 4 µg/mL (≈ 7.39 µM); minimal inhibitory concentration (MIC) (S. aureus RN4220/pMS520): 4 µg/mL (≈ 7.39 µM); minimal inhibitory concentration (MIC) (S. aureus MF490): 16 µg/mL (≈ 29.5 µM); minimal inhibitory concentration (MIC) (E. faecium ATCC19434): 32 µg/mL (≈ 59.1 µM); minimal inhibitory concentration (MIC) (E. coli JM109/pMW218): 1 µg/mL (≈ 1.85 µM); minimal inhibitory concentration (MIC) [1]: 2 µg/mL (≈ 3.69 µM); minimal inhibitory concentration (MIC) [2]: 2 µg/mL (≈ 3.69 µM); minimal inhibitory concentration (MIC) [3]: 8 µg/mL (≈ 14.8 µM); minimal inhibitory concentration (MIC) (S. marcescens TH-0447): 16 µg/mL (≈ 29.5 µM); minimal inhibitory concentration (MIC) (S. marcescens GN6944): 8 µg/mL (≈ 14.8 µM); minimal inhibitory concentration (MIC) (P. aeruginosa PAO1): 4 µg/mL (≈ 7.39 µM); minimal inhibitory concentration (MIC) (P. aeruginosa PAO1/GN315): 8 µg/mL (≈ 14.8 µM); minimal inhibitory concentration (MIC) (P. aeruginosa MSC17707): 8 µg/mL (≈ 14.8 µM); minimal inhibitory concentration (MIC) (P. aeruginosa MSC01035): 8 µg/mL (≈ 14.8 µM)
5 | gentamicin [GM, reference compound] | – | – | – | – | – | – | – | – | – | – | – | – | – | – | minimal inhibitory concentration (MIC) (S. aureus RN4220): 0.5 µg/mL; minimal inhibitory concentration (MIC) (S. aureus RN4220/pMS520): 0.5 µg/mL; minimal inhibitory concentration (MIC) (S. aureus MF490): >64 µg/mL; minimal inhibitory concentration (MIC) (E. faecium ATCC19434): 8 µg/mL; minimal inhibitory concentration (MIC) (E. coli JM109/pMW218): 0.25 µg/mL; minimal inhibitory concentration (MIC) [1]: 2 µg/mL; minimal inhibitory concentration (MIC) [2]: >64 µg/mL; minimal inhibitory concentration (MIC) [3]: >64 µg/mL; minimal inhibitory concentration (MIC) (S. marcescens TH-0447): 32 µg/mL; minimal inhibitory concentration (MIC) (S. marcescens GN6944): 64 µg/mL; minimal inhibitory concentration (MIC) (P. aeruginosa PAO1): 2 µg/mL; minimal inhibitory concentration (MIC) (P. aeruginosa PAO1/GN315): 8 µg/mL; minimal inhibitory concentration (MIC) (P. aeruginosa MSC17707): 8 µg/mL; minimal inhibitory concentration (MIC) (P. aeruginosa MSC01035): >64 µg/mL
6 | NCC[C@H](O)C(=O)N[C@@H]1C[C@H](N)[C@@H](O[C@H]2O[C@H](CN)CC[C@H]2N)[C@H](O)[C@H]1O[C@H]1O[C@H](CO)[C@@H](O)[C@H](N)[C@H]1O [ABK, arbekacin, reference compound] | 1 (≈ 1.81 µM) | 1 (≈ 1.81 µM) | 64 (≈ 116 µM) | 8 (≈ 14.5 µM) | 0.5 (≈ 0.905 µM) | 16 (≈ 29 µM) | > 64 | 32 (≈ 57.9 µM) | 64 (≈ 116 µM) | 8 (≈ 14.5 µM) | 2 (≈ 3.62 µM) | 8 (≈ 14.5 µM) | 4 (≈ 7.24 µM) | > 64 | –
7 | CNC1C(O[C@H]2OC(C)[C@@H](NC(=N)N)[C@H](O)C2O)O[C@H]2CC(N)[C@@H](O[C@H]3CC(O)[C@H](N)CC3N)OC2C1O (stereo partly shown) [Compound S1-q, 4″-deamino-5,6″-dideoxy-4″-guanidinoapramycin] | 1 (≈ 1.82 µM) | 1 (≈ 1.82 µM) | 4 (≈ 7.28 µM) | 4 (≈ 7.28 µM) | 0.5 (≈ 0.91 µM) | 1 (≈ 1.82 µM) | 0.5 (≈ 0.91 µM) | 16 (≈ 29.1 µM) | 4 (≈ 7.28 µM) | 4 (≈ 7.28 µM) | 4 (≈ 7.28 µM) | 8 (≈ 14.6 µM) | 8 (≈ 14.6 µM) | 8 (≈ 14.6 µM) | –
8 | CNC1C(O[C@H]2OC(CO)[C@@H](NC)[C@H](O)C2O)O[C@H]2CC(N)[C@@H](O[C@H]3CC(O)[C@H](N)CC3N)OC2C1O (stereo partly shown) [Compound S1-a, 5-deoxy-4″-N-methylapramycin] | 2 (≈ 3.72 µM) | 2 (≈ 3.72 µM) | 8 (≈ 14.9 µM) | 32 (≈ 59.5 µM) | 1 (≈ 1.86 µM) | 1 (≈ 1.86 µM) | 1 (≈ 1.86 µM) | 8 (≈ 14.9 µM) | 8 (≈ 14.9 µM) | 4 (≈ 7.44 µM) | 4 (≈ 7.44 µM) | 4 (≈ 7.44 µM) | 4 (≈ 7.44 µM) | 4 (≈ 7.44 µM) | –
